Laboratory results: ChEMBL document CHEMBL5236600, “Identification of a Novel Potent CYP4Z1 Inhibitor Attenuating the Stemness of Breast Cancer Cells through Lead Optimization” (J Med Chem, 2022)
Active and inactive are the calls of the source. No cut-off for these calls is given here.

Assays:
Cytochrome P450 4Z1 [1] = target: T1, Cytochrome P450 4Z1 (Homo sapiens, UniProt Q86W10); test: Inhibition of CYP4Z1 in human HEK293T cells using Luciferin-BE as substrate at 10 uM incubated for 30 mins in presence of NADPH by luminescence based assay relative to control; type: ADME, cell-based; settings: HEK-293T, 0.5 h
T1 sequence (Q86W10 whole entry): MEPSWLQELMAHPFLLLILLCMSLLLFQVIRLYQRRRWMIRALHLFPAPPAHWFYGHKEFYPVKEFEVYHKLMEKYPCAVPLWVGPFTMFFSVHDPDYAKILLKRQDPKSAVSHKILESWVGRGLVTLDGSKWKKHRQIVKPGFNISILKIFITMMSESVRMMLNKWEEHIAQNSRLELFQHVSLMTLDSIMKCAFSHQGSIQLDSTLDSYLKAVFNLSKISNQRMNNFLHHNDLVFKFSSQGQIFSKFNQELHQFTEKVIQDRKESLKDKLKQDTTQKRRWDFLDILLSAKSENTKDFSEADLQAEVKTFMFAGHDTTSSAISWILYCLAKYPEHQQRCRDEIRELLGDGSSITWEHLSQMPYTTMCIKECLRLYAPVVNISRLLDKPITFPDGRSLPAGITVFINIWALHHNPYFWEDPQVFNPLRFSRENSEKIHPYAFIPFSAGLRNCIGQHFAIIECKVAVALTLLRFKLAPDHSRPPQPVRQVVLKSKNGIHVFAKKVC

Cytochrome P450 4Z1 [2] = target: T1, Cytochrome P450 4Z1; test: Inhibition of CYP4Z1 in human HEK293T cells using Luciferin-BE as substrate at 1 uM incubated for 30 mins in presence of NADPH by luminescence based assay relative to control; type: ADME, cell-based; settings: HEK-293T, 0.5 h
Cytochrome P450 2D6 = Cytochrome P450 2D6 (Homo sapiens, UniProt P10635); test: Inhibition of human recombinant CYP2D6 using Luciferin-ME EGE as substrate incubated for 30 mins in presence of NADPH by luminescence based assay; type: ADME
Sequence of Cytochrome P450 2D6 (P10635 whole entry): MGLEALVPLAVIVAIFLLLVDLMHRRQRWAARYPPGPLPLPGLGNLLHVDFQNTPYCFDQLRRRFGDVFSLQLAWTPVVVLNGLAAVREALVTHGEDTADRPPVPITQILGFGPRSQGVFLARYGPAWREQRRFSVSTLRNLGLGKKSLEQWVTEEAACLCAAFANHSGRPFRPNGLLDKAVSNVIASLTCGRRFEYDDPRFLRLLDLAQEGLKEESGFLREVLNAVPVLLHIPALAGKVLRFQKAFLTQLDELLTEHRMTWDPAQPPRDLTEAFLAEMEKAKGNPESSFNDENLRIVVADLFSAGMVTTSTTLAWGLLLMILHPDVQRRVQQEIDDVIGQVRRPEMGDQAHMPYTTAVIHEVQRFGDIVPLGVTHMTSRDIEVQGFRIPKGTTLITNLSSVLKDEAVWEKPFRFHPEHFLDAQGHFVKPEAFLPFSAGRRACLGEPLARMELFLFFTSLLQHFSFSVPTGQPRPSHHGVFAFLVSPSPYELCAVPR

Cytochrome P450 2C9 = Cytochrome P450 2C9 (Homo sapiens, UniProt P11712); test: Inhibition of human recombinant CYP2C9 using Luciferin CEE as substrate incubated for 30 mins in presence of NADPH by luminescence based assay; type: ADME
Sequence of Cytochrome P450 2C9 (P11712 whole entry): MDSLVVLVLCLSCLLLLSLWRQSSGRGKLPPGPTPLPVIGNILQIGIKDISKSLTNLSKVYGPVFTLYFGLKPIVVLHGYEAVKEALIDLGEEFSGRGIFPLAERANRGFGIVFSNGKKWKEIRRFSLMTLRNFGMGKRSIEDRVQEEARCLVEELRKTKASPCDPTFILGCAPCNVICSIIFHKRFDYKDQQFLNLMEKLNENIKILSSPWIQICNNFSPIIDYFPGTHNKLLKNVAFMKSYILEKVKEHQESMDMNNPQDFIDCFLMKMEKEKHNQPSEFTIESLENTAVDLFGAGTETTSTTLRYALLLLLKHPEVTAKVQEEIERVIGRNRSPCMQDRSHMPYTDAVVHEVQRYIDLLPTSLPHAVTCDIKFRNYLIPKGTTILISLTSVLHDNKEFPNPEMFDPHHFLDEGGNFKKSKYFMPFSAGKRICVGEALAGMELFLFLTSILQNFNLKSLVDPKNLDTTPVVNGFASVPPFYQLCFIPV

Cytochrome P450 3A4 = Cytochrome P450 3A4 (Homo sapiens, UniProt P08684); test: Inhibition of human recombinant CYP3A4 using Luciferin-IPA as substrate incubated for 30 mins in presence of NADPH by luminescence based assay; type: ADME
Sequence of Cytochrome P450 3A4 (P08684 whole entry): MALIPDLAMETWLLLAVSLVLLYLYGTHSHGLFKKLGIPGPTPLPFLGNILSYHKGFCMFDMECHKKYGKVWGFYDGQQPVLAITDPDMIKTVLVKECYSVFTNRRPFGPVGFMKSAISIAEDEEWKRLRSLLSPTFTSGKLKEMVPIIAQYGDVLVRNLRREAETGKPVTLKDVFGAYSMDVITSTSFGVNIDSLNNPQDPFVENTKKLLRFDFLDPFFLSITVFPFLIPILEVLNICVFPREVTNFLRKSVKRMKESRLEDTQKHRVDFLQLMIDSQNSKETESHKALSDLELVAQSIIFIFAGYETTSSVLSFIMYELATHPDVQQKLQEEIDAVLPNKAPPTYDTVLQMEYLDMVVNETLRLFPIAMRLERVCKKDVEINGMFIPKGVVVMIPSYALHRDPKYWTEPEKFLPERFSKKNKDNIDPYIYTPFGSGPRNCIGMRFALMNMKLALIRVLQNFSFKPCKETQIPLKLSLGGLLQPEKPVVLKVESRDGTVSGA

MCF7 [3] = test: Antiproliferative activity against human MCF7 cells assessed as cell growth inhibition incubated for 72 hrs by MTT assay; type: functional, cell-based; settings: MCF7, 72 h
MDA-MB-231 [4] = test: Antiproliferative activity against human MDA-MB-231 cells assessed as cell growth inhibition incubated for 72 hrs by MTT assay; type: functional, cell-based; settings: MDA-MB-231, 72 h
[5] = Toxicity in mouse assessed as body weight loss at 2000 mg/kg,po administered for 7 days; type: organism-based; settings: in vivo, 168 h, time 7 day
[6] = Stability in mouse plasma assessed as half life at 40 uM incubated upto 5 hrs by LC-MS/MS analysis; type: ADME, cell-free
[7] = Stability in mouse liver microsomes assessed as half life at 1 uM incubated upto 60 mins in presence of NADPH by LC-MS/MS analysis; type: ADME, Microsome
MCF7 [8] = test: Inhibition of cell stemness in human MCF7 cells assessed as reduction in OCT4 expression at 0.8 to 51.2 uM by western blot analysis; type: functional, cell-based; settings: dose 0.8-51.2 µM
MCF7 [9] = test: Inhibition of cell stemness in human MCF7 cells assessed as reduction in OCT3 expression at 0.8 to 51.2 uM by western blot analysis; type: functional, cell-based; settings: dose 0.8-51.2 µM
MCF7 [10] = test: Inhibition of cell stemness in human MCF7 cells assessed as reduction in SOX2 expression at 0.8 to 51.2 uM by western blot analysis; type: functional, cell-based; settings: dose 0.8-51.2 µM
MCF7 [11] = test: Inhibition of cell stemness in human MCF7 cells assessed as reduction in ALDH1A1 expression at 0.8 to 51.2 uM by western blot analysis; type: functional, cell-based; settings: dose 0.8-51.2 µM
MCF7 [12] = test: Inhibition of cell stemness in human MCF7 cells assessed as reduction in P-gP expression at 0.8 to 51.2 uM by western blot analysis; type: functional, cell-based; settings: dose 0.8-51.2 µM
MCF7 [13] = test: Inhibition of cell stemness in human MCF7 cells assessed as reduction in Nanog expression at 0.8 to 51.2 uM by western blot analysis; type: functional, cell-based; settings: dose 0.8-51.2 µM
MDA-MB-231 [14] = test: Inhibition of cell stemness in human MDA-MB-231 cells assessed as reduction in OCT4 expression at 0.8 to 51.2 uM by western blot analysis; type: functional, cell-based; settings: dose 0.8-51.2 µM
MDA-MB-231 [15] = test: Inhibition of cell stemness in human MDA-MB-231 cells assessed as reduction in OCT3 expression at 0.8 to 51.2 uM by western blot analysis; type: functional, cell-based; settings: dose 0.8-51.2 µM
MDA-MB-231 [16] = test: Inhibition of cell stemness in human MDA-MB-231 cells assessed as reduction in SOX2 expression at 0.8 to 51.2 uM by western blot analysis; type: functional, cell-based; settings: dose 0.8-51.2 µM
MDA-MB-231 [17] = test: Inhibition of cell stemness in human MDA-MB-231 cells assessed as reduction in ALDH1A1 expression at 0.8 to 51.2 uM by western blot analysis; type: functional, cell-based; settings: dose 0.8-51.2 µM
MDA-MB-231 [18] = test: Inhibition of cell stemness in human MDA-MB-231 cells assessed as reduction in P-gP expression at 0.8 to 51.2 uM by western blot analysis; type: functional, cell-based; settings: dose 0.8-51.2 µM
MDA-MB-231 [19] = test: Inhibition of cell stemness in human MDA-MB-231 cells assessed as reduction in Nanog expression at 0.8 to 51.2 uM by western blot analysis; type: functional, cell-based; settings: dose 0.8-51.2 µM
MCF7 [20] = test: Antiproliferative activity against human MCF7 cells assessed as decrease in CD44+/CD24- cell population at 0.8 to 51.2 uM incubated for 30 mins by flow cytometry analysis; type: functional, cell-based; settings: dose 0.8-51.2 µM
MDA-MB-231 [21] = test: Antiproliferative activity against human MDA-MB-231 cells assessed as decrease in CD44+/CD24- cell population at 0.8 to 51.2 uM incubated for 30 mins by flow cytometry analysis; type: functional, cell-based; settings: dose 0.8-51.2 µM
MCF7 [22] = test: Antiproliferative activity against human MCF7 cells assessed as decrease in spheroid size at 3.2 to 51.2 uM incubated for 10 days; type: functional, cell-based; settings: dose 3.2-51.2 µM, time 10.0 day
MDA-MB-231 [23] = test: Antiproliferative activity against human MDA-MB-231 cells assessed as decrease in spheroid size at 3.2 to 51.2 uM incubated for 10 days; type: functional, cell-based; settings: dose 3.2-51.2 µM, time 10.0 day
MCF7 [24] = test: Antiproliferative activity against human MCF7 cells assessed as decrease in spheroid number at 3.2 to 51.2 uM incubated for 10 days; type: functional, cell-based; settings: dose 3.2-51.2 µM, time 10.0 day
MDA-MB-231 [25] = test: Antiproliferative activity against human MDA-MB-231 cells assessed as decrease in spheroid number at 3.2 to 51.2 uM incubated for 10 days; type: functional, cell-based; settings: dose 3.2-51.2 µM, time 10.0 day
MCF7 [26] = test: Inhibition of cell migration of human MCF7 cells at 0.8 to 51.2 uM incubated for 48 hrs by wound healing assay; type: functional, cell-based; settings: dose 0.8-51.2 µM
MDA-MB-231 [27] = test: Inhibition of cell migration of human MDA-MB-231 cells at 0.8 to 51.2 uM incubated for 24 hrs by wound healing assay; type: functional, cell-based; settings: dose 0.8-51.2 µM
MCF7 [28] = test: Inhibition of cell invasion of human MCF7 cells at 0.8 to 51.2 uM incubated for 48 hrs by transwell invasion assay; type: functional, cell-based; settings: dose 0.8-51.2 µM
MDA-MB-231 [29] = test: Inhibition of cell invasion of human MDA-MB-231 cells at 0.8 to 51.2 uM incubated for 24 hrs by transwell invasion assay; type: functional, cell-based; settings: dose 0.8-51.2 µM
MCF7 [30] = test: Antitumor activity against human MCF7 cells implanted in BALB/c mouse assessed as reduction in tumor formation ratio administered drug pretreated cells subcutaneously and observed after 2 weeks; type: functional, cell-based; settings: route sc
MDA-MB-231 [31] = test: Antitumor activity against human MDA-MB-231 cells implanted in BALB/c mouse assessed as reduction in tumor formation ratio administered drug pretreated cells subcutaneously and observed after 2 weeks; type: functional, cell-based; settings: route sc
MCF7 [32] = test: Antitumor activity against human MCF7 cells implanted in BALB/c mouse assessed as reduction in stem cell frequency administered drug pretreated cells subcutaneously and observed after 2 weeks; type: functional, cell-based; settings: route sc
MDA-MB-231 [33] = test: Antitumor activity against human MDA-MB-231 cells implanted in BALB/c mouse assessed as reduction in stem cell frequency administered drug pretreated cells subcutaneously and observed after 2 weeks; type: functional, cell-based; settings: route sc
MCF7 [34] = test: Antitumor activity against human MCF7 cells implanted in BALB/c mouse assessed as change in stem cell frequency administered drug pretreated cells subcutaneously and observed after 2 weeks by colligation test; type: functional, cell-based; settings: route sc
MDA-MB-231 [35] = test: Antitumor activity against human MDA-MB-231 cells implanted in BALB/c mouse assessed as change in stem cell frequency administered drug pretreated cells subcutaneously and observed after 2 weeks by colligation test; type: functional, cell-based; settings: route sc
MCF7 [36] = test: Antitumor activity against human MCF7 cells implanted in BALB/c mouse assessed as change in tumor weight administered drug pretreated cells subcutaneously and observed after 2 weeks; type: functional, cell-based; settings: route sc
MDA-MB-231 [37] = test: Antitumor activity against human MDA-MB-231 cells implanted in BALB/c mouse assessed as change in tumor weight administered drug pretreated cells subcutaneously and observed after 2 weeks; type: functional, cell-based; settings: route sc
MCF7 [38] = test: Antitumor activity against human MCF7 cells implanted in BALB/c mouse assessed as decrease in Ki67 expression administered drug pretreated cells subcutaneously and observed after 2 weeks by immunohistochemistry; type: functional, cell-based; settings: route sc
MDA-MB-231 [39] = test: Antitumor activity against human MDA-MB-231 cells implanted in BALB/c mouse assessed as decrease in Ki67 expression administered drug pretreated cells subcutaneously and observed after 2 weeks by immunohistochemistry; type: functional, cell-based; settings: route sc
MCF7 [40] = test: Antitumor activity against human MCF7 cells implanted in BALB/c mouse assessed as decrease in OCT4 expression administered drug pretreated cells subcutaneously and observed after 2 weeks by immunohistochemistry; type: functional, cell-based; settings: route sc
MDA-MB-231 [41] = test: Antitumor activity against human MDA-MB-231 cells implanted in BALB/c mouse assessed as decrease in OCT4 expression administered drug pretreated cells subcutaneously and observed after 2 weeks by immunohistochemistry; type: functional, cell-based; settings: route sc
MCF7 [42] = test: Antitumor activity against human MCF7 cells implanted in BALB/c mouse assessed as decrease in ALDH1A1 expression administered drug pretreated cells subcutaneously and observed after 2 weeks by immunohistochemistry; type: functional, cell-based; settings: route sc
MDA-MB-231 [43] = test: Antitumor activity against human MDA-MB-231 cells implanted in BALB/c mouse assessed as decrease in ALDH1A1 expression administered drug pretreated cells subcutaneously and observed after 2 weeks by immunohistochemistry; type: functional, cell-based; settings: route sc

## O=C(O)Cc1ccc(N/C=N/O)cc1
Cytochrome P450 4Z1 [1]
  inhibition at 10 µM: 54.3%
Cytochrome P450 4Z1 [2]
  inhibition at 1 µM: 36.5%

## CCOC(=O)CCCc1ccc(N/C=N/O)cc1
Cytochrome P450 2D6
  IC50: > 10 µM
Cytochrome P450 2C9
  IC50: > 10 µM
Cytochrome P450 3A4
  IC50: > 10 µM
MCF7 [3]
  IC50: 483 nM
MDA-MB-231 [4]
  IC50: 483 nM
[5]
  Activity: Non-Toxic
[6]
  half-life at 40 µM: 24.6 min
[7]
  half-life at 1 µM: 12.8 min
MCF7 [8]
  inhibition: Dose-Dependent Effect
MCF7 [9]
  inhibition: Dose-Dependent Effect
MCF7 [10]
  inhibition: Dose-Dependent Effect
MCF7 [11]
  inhibition: Dose-Dependent Effect
MCF7 [12]
  inhibition: Dose-Dependent Effect
MCF7 [13]
  inhibition: Dose-Dependent Effect
MDA-MB-231 [14]
  inhibition: Dose-Dependent Effect
MDA-MB-231 [15]
  inhibition: Dose-Dependent Effect
MDA-MB-231 [16]
  inhibition: Dose-Dependent Effect
MDA-MB-231 [17]
  inhibition: Dose-Dependent Effect
MDA-MB-231 [18]
  inhibition: Dose-Dependent Effect
MDA-MB-231 [19]
  inhibition: Dose-Dependent Effect
MCF7 [20]
  Activity: Dose-Dependent Effect
MDA-MB-231 [21]
  Activity: Dose-Dependent Effect
MCF7 [22]
  Activity: Dose-Dependent Effect
MDA-MB-231 [23]
  Activity: Dose-Dependent Effect
MCF7 [24]
  Activity: Dose-Dependent Effect
MDA-MB-231 [25]
  Activity: Dose-Dependent Effect
MCF7 [26]
  inhibition: Dose-Dependent Effect
MDA-MB-231 [27]
  inhibition: Dose-Dependent Effect
MCF7 [28]
  inhibition: Active
MDA-MB-231 [29]
  inhibition: Active
MCF7 [30]
  Activity: Active
MDA-MB-231 [31]
  Activity: Active
MCF7 [32]
  Activity: Active
MDA-MB-231 [33]
  Activity: Active
MCF7 [34]
  Activity: Active
MDA-MB-231 [35]
  Activity: Active
MCF7 [36]
  Activity: inactive
MDA-MB-231 [37]
  Activity: inactive
MCF7 [38]
  Activity: Active
MDA-MB-231 [39]
  Activity: Active
MCF7 [40]
  Activity: Active
MDA-MB-231 [41]
  Activity: Active
MCF7 [42]
  Activity: Active
MDA-MB-231 [43]
  Activity: Active
